Laboratory results reported in article PMC6017115, “Inhibitory Effect of Sauchinone on UDP-Glucuronosyltransferase (UGT) 2B7 Activity” (Molecules : A Journal of Synthetic Chemistry and Natural …, 2018).

What was measured:
Assay type in all cases: in vitro ADME
[1] = target: T1, UGT1A1 (Homo sapiens, UniProt P22309); assay: Inhibition of UGT1A1 (β-estradiol glucuronidation) in human liver microsomes; conditions: substrate 10 μM β-estradiol, mean (minimum–maximum)
T1 construct: The reaction mixture containing 0.25 mg/mL protein of HLM; tissue Corning Life Sciences 452156; host or cells: pooled human liver microsomes, 50 donors
T1 sequence (P22309 26-533): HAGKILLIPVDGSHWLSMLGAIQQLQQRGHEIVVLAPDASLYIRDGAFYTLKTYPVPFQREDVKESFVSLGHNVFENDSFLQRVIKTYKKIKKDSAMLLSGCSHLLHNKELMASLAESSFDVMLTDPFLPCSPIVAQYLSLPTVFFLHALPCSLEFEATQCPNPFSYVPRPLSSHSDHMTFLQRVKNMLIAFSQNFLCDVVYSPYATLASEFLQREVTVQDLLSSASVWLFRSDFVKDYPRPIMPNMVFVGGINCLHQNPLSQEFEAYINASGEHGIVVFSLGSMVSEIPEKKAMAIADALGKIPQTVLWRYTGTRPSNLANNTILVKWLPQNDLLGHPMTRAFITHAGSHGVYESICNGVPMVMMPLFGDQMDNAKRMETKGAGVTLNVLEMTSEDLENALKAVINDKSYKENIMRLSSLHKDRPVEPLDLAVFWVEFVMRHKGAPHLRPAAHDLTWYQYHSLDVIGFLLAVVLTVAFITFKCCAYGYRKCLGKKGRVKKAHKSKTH
Experimental: (§1) Their IC50 values were compared to that of sauchinone. […] UGT-mediated activities in the presence of sauchinone as an inhibitor were expressed as percentages of corresponding control values (in absence of sauchinone). From percentages of control activity versus inhibitor concentrations, a sigmoid shaped curve was fitted to the data and IC50 as an enzyme inhibition parameter was calculated by fitting the Hill equation to the data using GraphPad Prism 5 (GraphPad Software Inc., San Diego, CA, USA).

[2] = target: T2, UGT1A4 (Homo sapiens, UniProt P22310); assay: Inhibition of UGT1A4 (trifluoperazine glucuronidation) in human liver microsomes; conditions: human liver microsomes
T2 construct: The reaction mixture containing 0.25 mg/mL protein of HLM; tissue Corning Life Sciences 452156; host or cells: pooled human liver microsomes, 50 donors
T2 sequence (P22310 29-534): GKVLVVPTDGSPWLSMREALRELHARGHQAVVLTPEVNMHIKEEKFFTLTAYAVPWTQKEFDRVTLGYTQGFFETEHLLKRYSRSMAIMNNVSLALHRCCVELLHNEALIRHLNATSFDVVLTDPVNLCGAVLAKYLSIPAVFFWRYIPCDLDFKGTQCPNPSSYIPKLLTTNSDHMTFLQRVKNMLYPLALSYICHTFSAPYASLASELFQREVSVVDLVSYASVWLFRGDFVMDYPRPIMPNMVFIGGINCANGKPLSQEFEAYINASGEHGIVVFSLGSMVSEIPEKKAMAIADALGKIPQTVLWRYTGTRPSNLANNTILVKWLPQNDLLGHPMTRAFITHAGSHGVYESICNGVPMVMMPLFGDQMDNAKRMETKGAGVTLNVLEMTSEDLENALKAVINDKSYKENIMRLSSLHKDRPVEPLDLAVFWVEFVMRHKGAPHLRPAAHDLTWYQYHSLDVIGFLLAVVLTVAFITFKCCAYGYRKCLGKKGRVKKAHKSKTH
Experimental: as §1

[3] = target: T3, UGT1A9 (Homo sapiens, UniProt O60656); assay: Inhibition of UGT1A9 (propofol glucuronidation) in human liver microsomes
T3 construct: The reaction mixture containing 0.25 mg/mL protein of HLM; tissue Corning Life Sciences 452156; host or cells: pooled human liver microsomes, 50 donors
T3 sequence (O60656 26-530): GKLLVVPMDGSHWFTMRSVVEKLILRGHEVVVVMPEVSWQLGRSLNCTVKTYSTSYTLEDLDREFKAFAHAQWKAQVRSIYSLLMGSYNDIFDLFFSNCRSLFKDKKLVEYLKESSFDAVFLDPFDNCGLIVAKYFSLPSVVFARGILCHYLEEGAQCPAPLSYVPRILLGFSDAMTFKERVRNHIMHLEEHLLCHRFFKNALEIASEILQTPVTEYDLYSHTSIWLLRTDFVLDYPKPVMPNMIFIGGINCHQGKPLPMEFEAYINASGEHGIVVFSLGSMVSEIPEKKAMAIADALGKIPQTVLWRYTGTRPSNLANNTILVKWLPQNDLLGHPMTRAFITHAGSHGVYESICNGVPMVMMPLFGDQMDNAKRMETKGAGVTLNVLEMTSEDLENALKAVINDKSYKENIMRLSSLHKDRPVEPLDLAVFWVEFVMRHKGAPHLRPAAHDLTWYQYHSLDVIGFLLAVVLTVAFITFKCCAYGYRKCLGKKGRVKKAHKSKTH
Experimental: as §1

[4] = system: Ugt1a3; assay: Inhibition of Ugt1a3 (CDCA) in mice liver microsomes; conditions: mouse, pH 7.6, read-out: IC50 of Ugt1a3-catalyzed CDCA
Experimental: Their IC50 values were compared to that of sauchinone. […] Mice were sacrificed and then livers were removed and rinsed with saline. After weighing the livers, they were homogenized with a four-fold volume of ice-cold homogenizing buffer (0.154 M KCl, 50 mM Tris-base, 1 mM EDTA, pH 7.4). After centrifugation for 35 min at 9000× g and 4 °C, the supernatants were centrifuged for 95 min at 100,000× g and at 4 °C. The supernatants were discarded and the pellets were homogenized again with ice-cold homogenizing buffer. These aliquots were stored at −80 °C. The subsequent process to evaluate the inhibitory effects of sauchinone on UGT activities in MLM was the same as those using HLM. UGT-mediated activities in the presence of sauchinone as an inhibitor were expressed as percentages of corresponding control values (in absence of sauchinone). From percentages of control activity versus inhibitor concentrations, a sigmoid shaped curve was fitted to the data and IC50 as an enzyme inhibition parameter was calculated by fitting the Hill equation to the data using GraphPad Prism 5 (GraphPad Software Inc., San Diego, CA, USA).

[5] = target: T4, UGT2B7 (Homo sapiens, UniProt P16662); assay: Inhibition of UGT2B7 (zidovudine glucuronidation) in human liver microsomes; parameters: tissue Corning Life Sciences 452156; host or cells: pooled human liver microsomes
T4 sequence (P16662 24-529): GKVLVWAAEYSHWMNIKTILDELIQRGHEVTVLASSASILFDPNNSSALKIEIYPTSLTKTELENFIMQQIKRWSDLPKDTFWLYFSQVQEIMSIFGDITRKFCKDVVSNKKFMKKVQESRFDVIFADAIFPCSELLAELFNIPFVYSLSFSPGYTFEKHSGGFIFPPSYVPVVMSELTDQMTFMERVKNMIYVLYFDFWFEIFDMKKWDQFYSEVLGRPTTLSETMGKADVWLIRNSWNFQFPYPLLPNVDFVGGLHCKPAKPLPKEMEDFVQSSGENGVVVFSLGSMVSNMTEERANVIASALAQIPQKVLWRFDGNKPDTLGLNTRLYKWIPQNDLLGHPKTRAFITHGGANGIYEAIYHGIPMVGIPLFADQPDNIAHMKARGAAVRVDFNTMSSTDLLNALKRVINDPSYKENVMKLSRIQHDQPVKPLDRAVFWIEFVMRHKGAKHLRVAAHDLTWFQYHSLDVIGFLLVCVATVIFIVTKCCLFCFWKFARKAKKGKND
Experimental: as §1

- IC50 [1]: 8.83 µM
- inhibitory effect on UGT1A4 activity ([2]; sauchinone up to 200 μM): negligible inhibitory effect
- IC50 ([2]; substrate 40 μM trifluoperazine, mean (minimum–maximum), read-out: IC50 for inhibition of UGT1A4): > 200 µM
- inhibitory effect on UGT1A9 activity ([3]; sauchinone up to 200 μM): negligible inhibitory effect
- IC50 ([3]; substrate 100 μM propofol, mean (minimum–maximum)): > 200 µM
- IC50 [4]: 79.9 µM
- IC50 [5]: 279 nM
SMILES: C[C@@H]1[C@H]2c3cc4c(cc3O[C@@]35OCOC3=CC(=O)[C@H](C[C@H]1C)[C@@H]25)OCO4 [Sauchinone]
